Measurements as given in patent US7915293B2, “Ubiquitin ligase inhibitors” (Rigel Pharmaceuticals, Inc., priority 2003, dated 2011).

Legend:
[1] = molecular target: E3 (His-APC11/APC2-"APC") (Homo sapiens, UniProt Q9NYG5+Q9UJX6); assay: Plate-based E3 ligase assay (APC FLAG), auto-ubiquitination; type: biochemical; set-up: key: “+” indicates that the compound exibits inhibitory activity; “−” indicates that low or no inhibitory activity was observed; details: for APC Flag 8 pt: 8 concentrations tested; for APC Flag (2 pt): 2 concentrations tested
Procedure: E3 (His-APC11/APC2-“APC”) auto-ubiquitination was measured as described in U.S. patent application Ser. No. 09/826,312 (Publication No. US-2002-0042083-A1), which is incorporated herein in its entirety. Details of the protocol are described below. Activity in the presence of the compound was determined relative to a parallel control in which only DMSO was added. Values of the IC50 were typically determined using 6 or 8 different concentrations of the compound, although as few as 2 concentrations may be used to approximate the IC50 value.
Nickel-coated 96-well plates (Pierce 15242) were blocked for 1 hour with 100 μl of blocking buffer at room temperature. The plates were washed 4 times with 225 μl of 1×PBS and 80 μl of the reaction buffer were added that contained 100 ng/well of Flag-ubiquitin. To this, 10 μl of the test compound diluted in DMSO were added. After the test compound was added, 10 μl of E1 (human), E2 (Ubch5c), and APC in Protein Buffer was added to obtain a final concentration of 5 ng/well of E1, 20 ng/well of E2 and 100 ng/well of APC. The plate were shaken for 10 minutes and incubated at room temperature for 1 hour. After incubation, the plates were washed 4 times with 225 μl of 1×PBS and 100 μl/well of Antibody Mix were added to each well. The plates were incubate at room temperature for another hour after which they were washed 4 times with 225 μl of 1×PBS and 100 μl/well of Lumino substrate were added to each well. The luminescence was measured by using a BMG luminescence microplate reader.
To prepare the Blocking Buffer (1 liter; 1% Casein in 1×PBS), 10 grams of Casein (Hammersten Grade Casein from Gallard-Schlesinger Inc. #440203) were placed into 1 liter of 1×PBS, stirred on a hot plate and kept between 50-60° C. for an hour. The buffer was allowed to cool to room temperature and then filtered using a Buchner Funnel (Buchner filter funnel 83 mm 30310-109) and Whatman filter paper (Whatman Grade No. 1 Filter paper 28450-070). It was stored at 4° C. until used.
The reaction buffer consisted of 62.5 mM Tris pH 7.6 (Trizma Base—Sigma T-8524), 3 mM MgCl2 (Magnesium Chloride—Sigma M-2393), 1 mM DTT (Sigma D-9779), 2.5 mM ATP (Roche Boehringer Mann Corp. 635-316), 100 ng/well of Flag-ubiquitin, 0.1% BSA (Sigma A-7906), and 0.05% Tween-20 (Sigma P-7949).
The Protein Buffer consisted of 20 mM Tris pH 7.6, 10% glycerol (Sigma G-5516) and 1 mM DTT.
The antibody mix consisted of 0.25% BSA (Sigma A-7906) in 1×PBS, 1/50,000 anti-Flag (Sigma F-3165), 1/100,000 of anti-Mouse IgG-HRP (Jackson Immunoresearch #115-035-146).
The substrate mix consisted of SuperSignal Substrate from Pierce (catalog number 37070ZZ) and was prepared by mixing 100 ml of the peroxide solution, 100 ml of the enhancer solution and 100 ml of Milli-Q® water.

[2] = tested on: A549 cells; assay: Cell proliferation assay, photographic image analysis of proliferation, apoptosis and death (PAD assay), A549; type: cell-based; set-up: key: “+” indicates that the compound exibits inhibitory activity; “−” indicates that low or no inhibitory activity was observed; details: 6 concentrations tested
Procedure: A549 (ATCC# CCL-185), HeLa (ATCC# CCL-2), HCT116 (ATCC# CCL-247), and H1299 (ATCC# CRL-5803) cells were maintained in T175 flasks following the ATCC recommended media and handling procedures. Flasks reaching approximately 70% confluency were trypsinized and resuspended in RPMI media (Cell-Gro catalog number 10-040-CM) modified to contain 5% FBS, 100 ug/mlPen/Strep (Cell-Gro catalog number 30-002-CL), and 0.3 mg/ml L-Glutamine (Cell-Gro catalog number 25-003-CL). A 20,000 cells/ml solution was made for plating. Cells were plated in black Packard 96 well plates by placing 100 μl per well (2,000 cells per well).
Compounds and additional media were added 24 hours after cell plating. A compound master plate was created with concentrations 500 times greater than the final concentration added to the cells. All compound testing was done in duplicate using 6.3 fold dilutions starting with 10 mM. All outside wells (and 4 internal wells) were DMSO controls. Taxol and at least one additional control were run on all plates. Three microliters of the compound master plate were added to deep well blocks containing 750 μl of RPMI media. One hundred microliters were transferred from the compound/media deep well blocks to the plated cells resulting in a 500 fold dilution of the compounds. Cells were grown at 37° C., 5% CO2 for 48 hours.
Cells to be analyzed by photography were fixed and stained. One hundred microliters of media were removed and 100 μl of 9.3% […] was added to each well. Plates were left on the benchtop for 45 minutes. A staining solution containing 1.55 μl of 1 mg/ml DAPI added to 18.75 ml PBS was warmed for 15 minutes at 37° C. The cells were aspirated prior to washing with 100 μl of PBS. Seventy microliters of PBS were aspirated and 170 μl of the DAPI solution were added to each well of fixed cells. Plates were left at room temperature for one hour then aspirated and washed twice with 100 μl of PBS. The stained cells were left at 4° C. for a minimum of 16 hours before photographic analysis with Array Scan II (Cellomics). Analysis of the photographic images to determine numbers of live cells (proliferation), apoptotic cells and dead cells, were according to the methods described in U.S. Provisional Patent Application Ser. No. 60/406,714, which incorporated herein in its entirety.

Sequence of E3 (His-APC11/APC2-"APC") (Q9NYG5 whole entry): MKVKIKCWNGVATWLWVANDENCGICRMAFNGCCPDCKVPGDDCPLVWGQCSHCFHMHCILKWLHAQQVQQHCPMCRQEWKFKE
Sequence of E3 (His-APC11/APC2-"APC") (Q9UJX6 whole entry): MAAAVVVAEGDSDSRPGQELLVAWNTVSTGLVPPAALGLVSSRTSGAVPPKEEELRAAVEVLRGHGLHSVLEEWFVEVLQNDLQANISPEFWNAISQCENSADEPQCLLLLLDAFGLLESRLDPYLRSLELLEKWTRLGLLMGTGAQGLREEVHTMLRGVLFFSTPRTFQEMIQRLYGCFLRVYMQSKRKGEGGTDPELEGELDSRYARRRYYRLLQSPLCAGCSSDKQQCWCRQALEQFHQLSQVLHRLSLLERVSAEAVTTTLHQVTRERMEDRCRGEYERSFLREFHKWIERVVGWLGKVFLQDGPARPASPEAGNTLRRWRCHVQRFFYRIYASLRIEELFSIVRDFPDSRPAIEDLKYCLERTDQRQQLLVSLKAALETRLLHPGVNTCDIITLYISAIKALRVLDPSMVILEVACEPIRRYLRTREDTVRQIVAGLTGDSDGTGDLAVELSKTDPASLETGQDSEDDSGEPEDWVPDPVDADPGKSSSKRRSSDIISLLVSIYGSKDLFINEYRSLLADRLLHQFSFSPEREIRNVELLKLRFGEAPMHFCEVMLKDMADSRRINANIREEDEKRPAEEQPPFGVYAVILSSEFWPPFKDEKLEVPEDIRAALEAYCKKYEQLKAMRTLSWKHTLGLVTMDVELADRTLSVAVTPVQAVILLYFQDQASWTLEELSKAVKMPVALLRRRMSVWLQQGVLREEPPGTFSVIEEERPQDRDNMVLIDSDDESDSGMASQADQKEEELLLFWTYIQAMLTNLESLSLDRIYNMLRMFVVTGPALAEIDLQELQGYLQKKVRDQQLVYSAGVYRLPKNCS

O=[N+]([O-])c1ccc(Oc2c(Cl)cc(S(=O)(=O)Nc3ccc(F)cc3F)cc2Cl)c(Cl)c1 [Example 17, 3,5-dichloro-4-(2-chloro-4-nitrophenoxy)-N-(2,4-difluorophenyl)benzene-sulfonamide]
APC Flag 8 pt [1]: + | PAD Assay, A549 6 pt [2]: −

CC1CN(S(=O)(=O)c2cc(Cl)c(Oc3ccc([N+](=O)[O-])cc3Cl)c(Cl)c2)CC(C)O1 (stereo not drawn) [Example 18, 4-{[3,5-dichloro-4-(2-chloro-4-nitrophenoxy)phenyl]sulfonyl}-2,6-dimethylmorpholine]
APC Flag 8 pt [1]: − | PAD Assay, A549 6 pt [2]: −

CN(c1cc(Cl)cc(Cl)c1)S(=O)(=O)c1cc(Cl)c(Oc2ccc([N+](=O)[O-])cc2Cl)c(Cl)c1 [Example 190, 3,5-dichloro-4-(2-chloro-4-nitrophenoxy)-N-(3,5-dichlorophenyl)-N-methylbenzene-sulfonamide]
APC Flag (2 pt) [1]: − (2 pt)

Cc1c(Cl)cccc1NS(=O)(=O)c1ccc(Oc2ccc(Cl)cc2)cc1 [Example 194, N-(3-chloro-2-methylphenyl)-4-(4-chloro-phenoxy)benzenesulfonamide]
APC Flag (2 pt) [1]: − (2 pt)

O=S(=O)(Nc1ccc(F)c(Cl)c1)c1ccc(Oc2ccc(Cl)cc2)cc1 [Example 195, N-(3-chloro-4-fluorophenyl)-4-(4-chloro-phenoxy)benzenesulfonamide]
APC Flag (2 pt) [1]: − (2 pt)

O=S(=O)(Nc1cccc(Br)c1)c1ccc(Oc2ccc(Cl)cc2)cc1 [Example 196, N-(3-bromophenyl)-4-(4-chlorophenoxy) benzenesulfonamide]
APC Flag (2 pt) [1]: − (2 pt)

O=[N+]([O-])c1ccc(Oc2c(Cl)cc(S(=O)(=O)Nc3ccc(F)c(F)c3)cc2Cl)c(Cl)c1 [Example 197, 3,5-dichloro-4-(2-chloro-4-nitrophenoxy)-N-(3,4-difluorophenyl)benzenesulfonamide]
APC Flag 8 pt [1]: +

Cc1ccc(NS(=O)(=O)c2cc(Cl)c(Oc3ccc([N+](=O)[O-])cc3Cl)c(Cl)c2)cc1F [Example 198, 3,5-dichloro-4-(2-chloro-4-nitrophenoxy)-N-(3-fluoro-4-methylphenyl)benzene-sulfonamide]
APC Flag 8 pt [1]: +

N=C(Nc1ccc(Cl)cc1)NS(=O)(=O)c1cc(Cl)c(Oc2ccc([N+](=O)[O-])cc2Cl)c(Cl)c1 [Example 211, 3,5-dichloro-4-(2-chloro-4-nitrophenoxy)-N-[[(4-chlorophenyl)amino](imino)methyl] benzenesulfonamide]
APC Flag 8 pt [1]: +

N=C(NS(=O)(=O)c1cc(Cl)c(Oc2ccc([N+](=O)[O-])cc2Cl)c(Cl)c1)c1ccccc1 [Example 212, N-{[3,5-dichloro-4-(2-chloro-4-nitro-phenoxy)phenyl]sulfonyl}benzene-carboximidamide]
APC Flag 8 pt [1]: −

N=C(Nc1nc2ccccc2[nH]1)NS(=O)(=O)c1cc(Cl)c(Oc2ccc([N+](=O)[O-])cc2Cl)c(Cl)c1 [Example 225, N-[(1H-benzimidazol-2-ylamino)(imino)methyl]-3,5-dichloro-4-(2-chloro-4-nitro-phenoxy)benzenesulfonamide]
APC Flag 8 pt [1]: +

CC(C)c1ccccc1NS(=O)(=O)c1cc(Cl)c(Oc2ccc([N+](=O)[O-])cc2Cl)c(Cl)c1 [Example 227, 3,5-dichloro-4-(2-chloro-4-nitrophenoxy)-N-(2-isopropylphenyl)benzenesulfonamide]
APC Flag (2 pt) [1]: − (2 pt)

O=[N+]([O-])c1ccc(Oc2c(Cl)cc(S(=O)(=O)Nc3cc(Cl)cnc3Cl)cc2Cl)c(Cl)c1 [Example 233, 3,5-dichloro-4-(2-chloro-4-nitrophenoxy)-N-(2,5-dichloropyridin-3-yl)benzene-sulfonamide]
APC Flag 8 pt [1]: +

O=[N+]([O-])c1ccc(Oc2c(Cl)cc(S(=O)(=O)Nc3cccc(F)c3F)cc2Cl)c(Cl)c1 [Example 239, 3,5-dichloro-4-(2-chloro-4-nitrophenoxy)-N-(2,3-difluorophenyl)benzenesulfonamide]
APC Flag 8 pt [1]: +

Cc1ccc(S(=O)(=O)Nc2ccc(Oc3c([N+](=O)[O-])cc(C(F)(F)F)cc3[N+](=O)[O-])c(Cl)c2)cc1 [Example 247, N-{3-chloro-4-[2,6-dinitro-4-(trifluoro-methyl)phenoxy]phenyl}-4-methylbenzene-sulfonamide]
APC Flag 8 pt [1]: +

O=[N+]([O-])c1cc(C(F)(F)F)cc([N+](=O)[O-])c1Oc1ccc(NS(=O)(=O)c2ccc(Cl)cc2)cc1Cl [Example 248, 4-chloro-N-{3-chloro-4-[2,6-dinitro-4-(tri-fluoromethyl)phenoxy]phenyl}benzene-sulfonamide]
APC Flag 8 pt [1]: −

O=[N+]([O-])c1ccc(F)c(NS(=O)(=O)c2ccc(Oc3ccc([N+](=O)[O-])cc3C(F)(F)F)c(Cl)c2)c1 [Example 260, 3-chloro-N-(2-fluoro-5-nitrophenyl)-4-[4-nitro-2-(trifluoromethyl)phenoxy]benzene-sulfonamide]
APC Flag 8 pt [1]: +

CC(=O)N(C(C)=O)c1ccc(Oc2c(Cl)cc(S(=O)(=O)Nc3cccc(Cl)c3)cc2Cl)c(Cl)c1 [Example 280, N-acetyl-N-[3-chloro-4-(2,6-dichloro-4-{[(3-chlorophenyl)amino]sulfonyl}phenoxy)phenyl]acetamide]
APC Flag 8 pt [1]: +

O=[N+]([O-])c1ccc(Oc2c(Cl)cc(S(=O)(=O)Nc3cc(OC(F)(F)F)ccc3Br)cc2Cl)c(Cl)c1 [Example 293, N-(2-bromo-5-(trifluoromethoxy)phenyl)-3,5-dichloro-4-(2-chloro-4-nitrophenoxy)benzenesulfonamide]
APC Flag 8 pt [1]: +

O=C(Nc1cc(C(F)(F)F)ccc1Cl)N1CCC(Oc2ccccc2C(F)(F)F)CC1 [Example 307, N-(2-chloro-5-(trifluoromethyl)phenyl)-4-(2-(trifluoromethyl)phenoxy)piperidine-1-carboxamide]
APC Flag 8 pt [1]: −

O=C(Nc1cc(Cl)ccc1Cl)N1CCC(Oc2ccccc2C(F)(F)F)CC1 [Example 308, N-(2,5-dichlorophenyl)-4-(2-(trifluoromethyl)phenoxy)piperidine-1-carboxamide]
APC Flag 8 pt [1]: −

O=C(Nc1cc(C(F)(F)F)ccc1Cl)N1CCC(Oc2ncccn2)CC1 [Example 309, N-(2-chloro-5-(trifluoromethyl)phenyl)-4-(pyrimidin-2-yloxy)piperidine-1-carboxamide]
APC Flag 8 pt [1]: −
